Columns and labels:
[1] = target: GDP-bound NRAS wild-type protein (Homo sapiens, UniProt P01111); test: Binding to NRAS by surface plasmon resonance (SPR), Single Cycle Kinetics; conditions: SPR, GDP-bound NRAS wild-type vs GDP-bound KRAS wild-type
[2] = target: GDP-bound HRAS wild-type protein (Homo sapiens, UniProt P01112); test: Binding to HRAS by surface plasmon resonance (SPR), Single Cycle Kinetics; conditions: SPR, GDP-bound HRAS wild-type vs GDP-bound KRAS wild-type
Chain of GDP-bound HRAS wild-type protein (P01112 whole entry): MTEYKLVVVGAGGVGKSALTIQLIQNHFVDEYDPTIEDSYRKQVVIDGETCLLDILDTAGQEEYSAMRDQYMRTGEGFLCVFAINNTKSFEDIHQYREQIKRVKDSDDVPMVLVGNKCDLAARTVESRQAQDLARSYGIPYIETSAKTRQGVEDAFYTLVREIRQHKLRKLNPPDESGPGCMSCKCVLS

Chain of GDP-bound NRAS wild-type protein (P01111 whole entry): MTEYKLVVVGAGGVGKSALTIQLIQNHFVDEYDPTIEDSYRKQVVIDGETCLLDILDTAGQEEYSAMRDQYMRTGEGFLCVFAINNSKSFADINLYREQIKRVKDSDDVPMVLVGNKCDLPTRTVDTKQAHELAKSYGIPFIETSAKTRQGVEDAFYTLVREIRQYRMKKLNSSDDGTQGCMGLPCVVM

CCO[C@@H]1C[C@H]2C(=O)NC3(CC(C)(C)C3)C(=O)N(C)[C@@H](C3CCCC3)C(=O)N(C)[C@H](C(=O)N(C)CC)CC(=O)N(C)[C@@H](C(C)C)C(=O)N[C@@H]([C@@H](C)CC)C(=O)N(C)CC(=O)N(C)[C@H]3C/C=C\CCN(C3=O)[C@@H](Cc3ccc(C(F)(F)F)cc3)C(=O)N(C)CC(=O)N[C@@H](CCc3cc(F)c(C(F)(F)F)c(F)c3)C(=O)N2C1 [PP2034]
NRAS/KRAS (ratio of KD value with respect to NRAS to KD value with respect to KRAS) [1]: A (a compound having 10 or more and less than 20 is denoted as A)
HRAS/KRAS (ratio of KD value with respect to HRAS to KD value with respect to KRAS) [2]: A (a compound having 10 or more and less than 20 is denoted as A)

CCO[C@@H]1C[C@H]2C(=O)NC3(CC(C)(C)C3)C(=O)N(C)[C@@H](C3CCCC3)C(=O)N(C)[C@H](C(=O)N(C)CC)CC(=O)N(C)[C@@H](C3CC3)C(=O)N[C@@H]([C@@H](C)CC)C(=O)N(C)CC(=O)N(C)[C@H]3C/C=C\CCN(C3=O)[C@@H](Cc3ccc(C(F)(F)F)cc3)C(=O)N(C)CC(=O)N[C@@H](CCc3cc(F)c(C(F)(F)F)c(F)c3)C(=O)N2C1 [PP2036]
NRAS/KRAS (ratio of KD value with respect to NRAS to KD value with respect to KRAS) [1]: A (a compound having 10 or more and less than 20 is denoted as A)
HRAS/KRAS (ratio of KD value with respect to HRAS to KD value with respect to KRAS) [2]: A (a compound having 10 or more and less than 20 is denoted as A)

CCCN(C)C(=O)[C@@H]1CC(=O)N(C)[C@@H](C2CC2)C(=O)N[C@@H]([C@@H](C)CC)C(=O)N(C)CC(=O)N(C)[C@H]2C/C=C\CCN(C2=O)[C@@H](Cc2ccc(C(F)(F)F)cc2)C(=O)N(C)CC(=O)N[C@@H](CCc2cc(F)c(C(F)(F)F)c(F)c2)C(=O)N2C[C@H](OCC)C[C@H]2C(=O)NC2(CC(C)(C)C2)C(=O)N(C)[C@@H](C2CCCC2)C(=O)N1C [PP2037]
NRAS/KRAS (ratio of KD value with respect to NRAS to KD value with respect to KRAS) [1]: A (a compound having 10 or more and less than 20 is denoted as A)
HRAS/KRAS (ratio of KD value with respect to HRAS to KD value with respect to KRAS) [2]: A (a compound having 10 or more and less than 20 is denoted as A)

CCO[C@@H]1C[C@H]2C(=O)NC3(CC(C)(C)C3)C(=O)N(C)[C@@H](C3CCCC3)C(=O)N(C)[C@H](C(=O)N(C)CC)CC(=O)N(C)[C@@H](C3CCC3)C(=O)N[C@@H]([C@@H](C)CC)C(=O)N(C)CC(=O)N(C)[C@H]3C/C=C\CCN(C3=O)[C@@H](Cc3ccc(C(F)(F)F)cc3)C(=O)N(C)CC(=O)N[C@@H](CCc3cc(F)c(C(F)(F)F)c(F)c3)C(=O)N2C1 [PP2038]
NRAS/KRAS (ratio of KD value with respect to NRAS to KD value with respect to KRAS) [1]: A (a compound having 10 or more and less than 20 is denoted as A)
HRAS/KRAS (ratio of KD value with respect to HRAS to KD value with respect to KRAS) [2]: A (a compound having 10 or more and less than 20 is denoted as A)

CCCN(C)C(=O)[C@@H]1CC(=O)N(C)[C@@H](CC(F)F)C(=O)N[C@@H]([C@@H](C)CC)C(=O)N(C)CC(=O)N(C)[C@H]2C/C=C\CCN(C2=O)[C@@H](Cc2ccc(C(F)(F)F)cc2)C(=O)N(C)CC(=O)N[C@@H](CCc2cc(F)c(C(F)(F)F)c(F)c2)C(=O)N2C[C@@H](C)C[C@H]2C(=O)NC2(CC(C)(C)C2)C(=O)N(C)[C@@H](C2CCCC2)C(=O)N1C [PP2040]
NRAS/KRAS (ratio of KD value with respect to NRAS to KD value with respect to KRAS) [1]: A (a compound having 10 or more and less than 20 is denoted as A)
HRAS/KRAS (ratio of KD value with respect to HRAS to KD value with respect to KRAS) [2]: A (a compound having 10 or more and less than 20 is denoted as A)

CCCN(C)C(=O)[C@@H]1CC(=O)N(C)[C@@H](COCC)C(=O)N[C@@H]([C@@H](C)CC)C(=O)N(C)CC(=O)N(C)[C@H]2C/C=C\CCN(C2=O)[C@@H](Cc2ccc(C(F)(F)F)cc2)C(=O)N(C)CC(=O)N[C@@H](CCc2cc(F)c(C(F)(F)F)c(F)c2)C(=O)N2C[C@@H](C)C[C@H]2C(=O)NC2(CC(C)(C)C2)C(=O)N(C)[C@@H](C2CCCC2)C(=O)N1C [PP2041]
NRAS/KRAS (ratio of KD value with respect to NRAS to KD value with respect to KRAS) [1]: A (a compound having 10 or more and less than 20 is denoted as A)
HRAS/KRAS (ratio of KD value with respect to HRAS to KD value with respect to KRAS) [2]: A (a compound having 10 or more and less than 20 is denoted as A)

CCOC[C@H]1C(=O)N[C@@H]([C@@H](C)CC)C(=O)N(C)CC(=O)N(C)[C@H]2C/C=C\CCN(C2=O)[C@@H](Cc2ccc(C(F)(F)F)cc2)C(=O)N(C)CC(=O)N[C@@H](CCc2cc(F)c(C(F)(F)F)c(F)c2)C(=O)N2C[C@@H](C)C[C@H]2C(=O)NC2(CC(C)(C)C2)C(=O)N(C)[C@@H](C2CCCC2)C(=O)N(C)[C@H](C(=O)N(C)CC)CC(=O)N1C [PP2042]
NRAS/KRAS (ratio of KD value with respect to NRAS to KD value with respect to KRAS) [1]: A (a compound having 10 or more and less than 20 is denoted as A)
HRAS/KRAS (ratio of KD value with respect to HRAS to KD value with respect to KRAS) [2]: A (a compound having 10 or more and less than 20 is denoted as A)

CCCOC[C@H]1C(=O)N[C@@H]([C@@H](C)CC)C(=O)N(C)CC(=O)N(C)[C@H]2C/C=C\CCN(C2=O)[C@@H](Cc2ccc(C(F)(F)F)cc2)C(=O)N(C)CC(=O)N[C@@H](CCc2cc(F)c(C(F)(F)F)c(F)c2)C(=O)N2C[C@@H](C)C[C@H]2C(=O)NC2(CC(C)(C)C2)C(=O)N(C)[C@@H](C2CCCC2)C(=O)N(C)[C@H](C(=O)N(C)CC)CC(=O)N1C [PP2043]
NRAS/KRAS (ratio of KD value with respect to NRAS to KD value with respect to KRAS) [1]: A (a compound having 10 or more and less than 20 is denoted as A)
HRAS/KRAS (ratio of KD value with respect to HRAS to KD value with respect to KRAS) [2]: A (a compound having 10 or more and less than 20 is denoted as A)

CCO[C@@H]1C[C@H]2C(=O)NC3(CC(C)(C)C3)C(=O)N(C)[C@@H](C3CCCC3)C(=O)N(C)[C@H](C(=O)N(C)CC)CC(=O)N(C)[C@@H](CC(C)C)C(=O)N[C@@H]([C@@H](C)CC)C(=O)N(C)CC(=O)N(C)[C@H]3C/C=C\CCN(C3=O)[C@@H](Cc3ccc(C(F)F)cc3)C(=O)N(C)CC(=O)N[C@@H](CCc3cc(F)c(C(F)(F)F)c(F)c3)C(=O)N2C1 [PP2046]
NRAS/KRAS (ratio of KD value with respect to NRAS to KD value with respect to KRAS) [1]: A (a compound having 10 or more and less than 20 is denoted as A)
HRAS/KRAS (ratio of KD value with respect to HRAS to KD value with respect to KRAS) [2]: A (a compound having 10 or more and less than 20 is denoted as A)

CCO[C@@H]1C[C@H]2C(=O)NC3(CC(C)(C)C3)C(=O)N(C)[C@@H](C3CCCC3)C(=O)N(C)[C@H](C(=O)N(C)C)CC(=O)N(C)[C@@H](CC)C(=O)N[C@@H]([C@@H](C)CC)C(=O)N(C)CC(=O)N(C)[C@H]3C/C=C\CCN(C3=O)[C@@H](Cc3ccc(Cl)cc3F)C(=O)N(C)CC(=O)N[C@@H](CCc3cc(F)c(C(F)(F)F)c(F)c3)C(=O)N2C1 [PP2048]
NRAS/KRAS (ratio of KD value with respect to NRAS to KD value with respect to KRAS) [1]: A (a compound having 10 or more and less than 20 is denoted as A)
HRAS/KRAS (ratio of KD value with respect to HRAS to KD value with respect to KRAS) [2]: B (a compound having 3 or more and less than 10 is denoted as B)

CCO[C@@H]1C[C@H]2C(=O)NC3(CC(C)(C)C3)C(=O)N(C)[C@@H](C3CCCC3)C(=O)N(C)[C@H](C(=O)N(C)C)CC(=O)N(C)[C@@H](CC)C(=O)N[C@@H]([C@@H](C)CC)C(=O)N(C)CC(=O)N(C)[C@H]3C/C=C\CCN(C3=O)[C@@H](Cc3ccc(C(F)F)cc3)C(=O)N(C)CC(=O)N[C@@H](CCc3cc(F)c(C(F)(F)F)c(F)c3)C(=O)N2C1 [PP2049]
NRAS/KRAS (ratio of KD value with respect to NRAS to KD value with respect to KRAS) [1]: A (a compound having 10 or more and less than 20 is denoted as A)
HRAS/KRAS (ratio of KD value with respect to HRAS to KD value with respect to KRAS) [2]: B (a compound having 3 or more and less than 10 is denoted as B)

C=CCN1CC(=O)N(C)[C@H]2C/C=C\CCN(C2=O)[C@@H](Cc2ccc(C)cc2)C(=O)N(C)CC(=O)N[C@@H](CCc2cc(F)c(C(F)(F)F)c(F)c2)C(=O)N2C[C@H](OCC)C[C@H]2C(=O)NC2(CC(C)(C)C2)C(=O)N(C)[C@@H](C2CCCC2)C(=O)N(C)[C@H](C(=O)N(C)C)CC(=O)N(C)[C@@H](CC(C)C)C(=O)N[C@@H]([C@@H](C)CC)C1=O [PP2050]
NRAS/KRAS (ratio of KD value with respect to NRAS to KD value with respect to KRAS) [1]: A (a compound having 10 or more and less than 20 is denoted as A)
HRAS/KRAS (ratio of KD value with respect to HRAS to KD value with respect to KRAS) [2]: A (a compound having 10 or more and less than 20 is denoted as A)

C#CC[C@H]1C(=O)N[C@@H]([C@@H](C)CC)C(=O)N(C)CC(=O)N(C)[C@H]2C/C=C\CCN(C2=O)[C@@H](Cc2ccc(C(F)(F)F)cc2)C(=O)N(C)CC(=O)N[C@@H](CCc2ccc(C(F)(F)F)c(OC)c2)C(=O)N2C[C@H](OCC)C[C@H]2C(=O)NC2(CC(C)(C)C2)C(=O)N(C)[C@@H](C2CCCC2)C(=O)N(C)[C@H](C(=O)N(C)CC)CC(=O)N1C [PP2051]
NRAS/KRAS (ratio of KD value with respect to NRAS to KD value with respect to KRAS) [1]: A (a compound having 10 or more and less than 20 is denoted as A)
HRAS/KRAS (ratio of KD value with respect to HRAS to KD value with respect to KRAS) [2]: A (a compound having 10 or more and less than 20 is denoted as A)

C#CCN1CC(=O)N(C)[C@H]2C/C=C\CCN(C2=O)[C@@H](Cc2ccc(C)cc2)C(=O)N(C)CC(=O)N[C@@H](CCc2cc(F)c(C(F)(F)F)c(F)c2)C(=O)N2C[C@H](OCC)C[C@H]2C(=O)NC2(CC(C)(C)C2)C(=O)N(C)[C@@H](C2CCCC2)C(=O)N(C)[C@H](C(=O)N(C)C)CC(=O)N(C)[C@@H](CC(C)C)C(=O)N[C@@H]([C@@H](C)CC)C1=O [PP2052]
NRAS/KRAS (ratio of KD value with respect to NRAS to KD value with respect to KRAS) [1]: A (a compound having 10 or more and less than 20 is denoted as A)
HRAS/KRAS (ratio of KD value with respect to HRAS to KD value with respect to KRAS) [2]: A (a compound having 10 or more and less than 20 is denoted as A)

C#CC[C@H]1C(=O)N[C@@H]([C@@H](C)CC)C(=O)N(C)CC(=O)N(C)[C@H]2C/C=C\CCN(C2=O)[C@@H](Cc2ccc(C(F)(F)F)cc2)C(=O)N(C)CC(=O)N[C@@H](CCc2ccc(C(F)(F)F)c(OC)c2)C(=O)N2C[C@H](OCC)C[C@H]2C(=O)NC2(CC(C)(C)C2)C(=O)N(C)[C@@H](C2CCCC2)C(=O)N(C)[C@H](C(=O)N(C)CCC)CC(=O)N1C [PP2053]
NRAS/KRAS (ratio of KD value with respect to NRAS to KD value with respect to KRAS) [1]: A (a compound having 10 or more and less than 20 is denoted as A)
HRAS/KRAS (ratio of KD value with respect to HRAS to KD value with respect to KRAS) [2]: A (a compound having 10 or more and less than 20 is denoted as A)

Source: patent publication US20250230193A1, “CYCLIC COMPOUND HAVING SELECTIVE KRAS INHIBITORY EFFECT ON HRAS AND NRAS” (CHUGAI SEIYAKU KABUSHIKI KAISHA, priority 2022, published 2025)
